Data on 20 compounds can be found in patent US20240368150A1 (Hoffmann-La Roche Inc., priority 2021, published 2024).

Each structure is given as a SMILES string. Where two headings read alike, the source gives them in different places. Bounds are passed on as bounds.

For assay [1], the system named is primary human T-cells.
Assay [2] concerns primary human T-cells. The assay is described as follows: Proliferation assay after 5 days (CellTiter-Glo, CD3 stimulation; PBS counter screen). It counts as cell-based. To be noted: CD3 stimulation; for Emax / Emax proliferation (% activation): 5 days, normalized to reference compound A1 as stimulator control = 100%, DMSO neutral control; for Emax: read-out: Emax proliferation (% activation); for EC50: primary human T-cells, CellTiter-Glo after 5 days, EC50 of fitted sigmoidal curve, read-out: Tcell Proliferation CD3 EC50. The method, boiled down:
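After compound addition to medium-only plates, cells are cultured 5 days, equilibrated to room temperature, mixed with an equal volume of CellTiter-Glo 2.0 and rocked 15 min before luminescence is read. Signal reflects ATP content, taken as proportional to cell number.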
(ATP-based viability assays read luminescence as a measure of living cells.)

Turning to `CC(C)(C)c1nnc(-c2cc3c(cc2F)S(=O)(=O)C[C@H](N)C(=O)N3Cc2ccc(OCCO)cc2)o1` [Example 234, (3R)-3-amino-7-(5-tert-butyl-1,3,4-oxadiazol-2-yl)-8-fluoro-5-[[4-(2-hydroxyethoxy)phenyl]methyl]-1,1-dioxo-2,3-dihydro-1λ^6,5-benzothiazepin-4-one], the EC50 in assay [1] came out at 5.34 µM. In addition, in assay [2] (Homo sapiens, T-cell, 120 h), the Emax stood at 130% and the EC50 was 1.2 µM.
The like results for `CC(C)(CO)c1nnc(-c2cc3c(cc2F)S(=O)(=O)C[C@H](N)C(=O)N3Cc2ccc(C#N)cc2)o1` [Example 188, 4-[[(3R)-3-amino-8-fluoro-7-[5-(2-hydroxy-1,1-dimethyl-ethyl)-1,3,4-oxadiazol-2-yl]-1,1,4-trioxo-2,3-dihydro-1λ^6,5-benzothiazepin-5-yl]methyl]benzonitrile] were, in that order, 3.18 µM, 29% and above 10 µM.
`CC1(C)COCCN1c1nnc(-c2cc3c(cc2F)S(=O)(=O)C[C@H](N)C(=O)N3Cc2ccc(Cl)cc2)o1` [Example 491, (3R)-3-amino-5-[(4-chlorophenyl)methyl]-7-[5-(3,3-dimethylmorpholin-4-yl)-1,3,4-oxadiazol-2-yl]-8-fluoro-1,1-dioxo-2,3-dihydro-1λ^6,5-benzothiazepin-4-one] showed an EC50 in assay [1] of 0.443 µM. In assay [2] (Homo sapiens, T-cell, 120 h), the Emax was 56% and the EC50 came to 0.142 µM.
On to `CC[C@H](O)C(=O)N[C@H]1CS(=O)(=O)c2cc(F)c(-c3nnc(C(C)(C)C)o3)cc2N(Cc2ccc(Cl)cc2)C1=O` [Example 260, (2S)-N-[(3R)-7-(5-tert-butyl-1,3,4-oxadiazol-2-yl)-5-[(4-chlorophenyl)methyl]-8-fluoro-1,1,4-trioxo-2,3-dihydro-1λ^6,5-benzothiazepin-3-yl]-2-hydroxy-butanamide], for which the EC50 in assay [1] is above 20 µM; in assay [2] (Homo sapiens, T-cell, 120 h), 1.82 µM. In assay [2] (Homo sapiens, T-cell, 120 h), the Emax was 82%.
For `N[C@H]1CS(=O)(=O)c2cc(F)c(-c3noc(C4(CO)CCCO4)n3)cc2N(Cc2ccc(Cl)cc2)C1=O` (stereo partly drawn) [Example 320, (3R)-3-amino-5-[(4-chlorophenyl)methyl]-8-fluoro-7-[5-[2-(hydroxymethyl)tetrahydrofuran-2-yl]-1,2,4-oxadiazol-3-yl]-1,1-dioxo-2,3-dihydro-1λ^6,5-benzothiazepin-4-one], the EC50 in assay [1] worked out at 3.21 µM. In assay [2] (Homo sapiens, T-cell, 120 h), the Emax is 107% and the EC50 was determined as 3.06 µM.
As for `N[C@H]1CS(=O)(=O)c2ccc(-c3nnc(C(F)(F)C(F)(F)F)o3)cc2N(Cc2ccc(Cl)cc2)C1=O` [Example 363, (3R)-3-amino-5-[(4-chlorophenyl)methyl]-1,1-dioxo-7-[5-(1,1,2,2,2-pentafluoroethyl)-1,3,4-oxadiazol-2-yl]-2,3-dihydro-1λ^6,5-benzothiazepin-4-one], the EC50 in assay [1] was 2.17 µM; in assay [2] (T-cell, 120 h), above 10 µM. Further, the Emax in assay [2] (Homo sapiens, T-cell, 120 h) was found to be 50%.
Take `COC(F)(c1nnc(-c2ccc3c(c2)N(Cc2ccc(OC(F)(F)F)cc2)C(=O)[C@@H](N)C[S+]3[O-])o1)C(F)(F)F` (single isomer, unassigned; epimer a) [Example 425]: the EC50 in assay [1] was above 10 µM; in assay [2] (Homo sapiens, T-cell, 120 h), 1.88 µM. For the same compound, the “Emax proliferation (% activation)” value in assay [2] is listed as 81 % activation.
In turn, `N[C@H]1CS(=O)(=O)c2ccc(-c3nnc(-c4ccccc4F)o3)cc2N(Cc2ccc(Cl)cc2)C1=O` [Example 376, (3R)-3-amino-5-[(4-chlorophenyl)methyl]-7-[5-(2-fluorophenyl)-1,3,4-oxadiazol-2-yl]-1,1-dioxo-2,3-dihydro-1λ^6,5-benzothiazepin-4-one] yielded an EC50 in assay [1] of 3.2 µM. In assay [2] (Homo sapiens, T-cell, 120 h), the Emax was 70% and the EC50 is 4.46 µM.
For `COC(=O)N1CCC2CC2(c2nnc(-c3cc4c(cc3F)S(=O)(=O)C[C@H](N)C(=O)N4Cc3ccc(Cl)cc3)o2)C1` (stereo partly drawn) [Example 178, methyl 1-[5-[(3R)-3-amino-5-[(4-chlorophenyl)methyl]-8-fluoro-1,1,4-trioxo-2,3-dihydro-1λ^6,5-benzothiazepin-7-yl]-1,3,4-oxadiazol-2-yl]-3-azabicyclo[4.1.0]heptane-3-carboxylate], the EC50 in assay [1] was 0.333 µM. In assay [2] (Homo sapiens, T-cell, 120 h), the Emax is 105% and the EC50 was 0.206 µM.
Consider `COc1ccc(CN2C(=O)[C@@H](N)CS(=O)(=O)c3cc(F)c(-c4nnc(C(C)(C)C)o4)cc32)cn1` [Example 225, (3R)-3-amino-7-(5-tert-butyl-1,3,4-oxadiazol-2-yl)-8-fluoro-5-[(6-methoxy-3-pyridyl)methyl]-1,1-dioxo-2,3-dihydro-1λ^6,5-benzothiazepin-4-one], for which, in assay [1], the EC50 amounted to 4.37 µM. Moreover, in assay [2] (Homo sapiens, T-cell, 120 h), the Emax was 109% and the EC50 worked out at 1.89 µM.
Compound `NC(Cn1nnc(-c2cc3c(cc2F)S(=O)(=O)C[C@H](N)C(=O)N3Cc2ccc(Cl)cc2)n1)C(F)(F)F` (stereo partly drawn) [Example 14, (3R)-3-amino-7-[2-(2-amino-3,3,3-trifluoro-propyl)tetrazol-5-yl]-5-[(4-chlorophenyl)methyl]-8-fluoro-1,1-dioxo-2,3-dihydro-1λ^6,5-benzothiazepin-4-one] returned an EC50 in assay [1] of 0.917 µM. For the same compound, in assay [2] (Homo sapiens, T-cell, 120 h), the Emax came to 131% and the EC50 was found to be 0.81 µM.
As for `CC(=O)NCCCCCCCCCCCOc1ccc(CN2C(=O)[C@@H](N)CS(=O)(=O)c3cc(F)c(-c4nnc(C(C)(C)C)o4)cc32)cc1` [Example 235, N-[11-[4-[[(3R)-3-amino-7-(5-tert-butyl-1,3,4-oxadiazol-2-yl)-8-fluoro-1,1,4-trioxo-2,3-dihydro-1λ^6,5-benzothiazepin-5-yl]methyl]phenoxy]undecyl]acetamide], the EC50 in assay [1] was found to be 0.17 µM. Further, in assay [2] (Homo sapiens, T-cell, 120 h), the Emax worked out at 108% and the EC50 was 0.0466 µM.
For `CC(C)(C#N)Nc1nnc(-c2cc3c(cc2F)S(=O)(=O)C[C@H](N)C(=O)N3Cc2ccc(Cl)cc2)o1` [Example 486, 2-methyl-2-[[5-[(3R)-3-amino-5-[(4-chlorophenyl)methyl]-8-fluoro-1,1,4-trioxo-2,3-dihydro-1λ^6,5-benzothiazepin-7-yl]-1,3,4-oxadiazol-2-yl]amino]propanenitrile] the same measures were 6.69 µM, 106% and 2.68 µM.
For `CN(C)C(=O)c1nc(-c2cc3c(cc2F)S(=O)(=O)C[C@H](N)C(=O)N3Cc2ccc(OC(F)(F)F)cc2)no1` [Example 328, 3-[(3R)-3-amino-8-fluoro-1,1,4-trioxo-5-[[4-(trifluoromethoxy)phenyl]methyl]-2,3-dihydro-1λ^6,5-benzothiazepin-7-yl]-N,N-dimethyl-1,2,4-oxadiazole-5-carboxamide] the same measures were 1.08 µM, 120% and 1.96 µM.
Regarding `N[C@H]1CS(=O)(=O)c2cc(F)c(-c3nnc(NCC(F)(F)F)o3)cc2N(Cc2ccc(Cl)cc2)C1=O` [Example 487, (3R)-3-amino-5-[(4-chlorophenyl)methyl]-8-fluoro-1,1-dioxo-7-[5-(2,2,2-trifluoroethylamino)-1,3,4-oxadiazol-2-yl]-2,3-dihydro-1λ^6,5-benzothiazepin-4-one], the EC50 in assay [1] came to 8.6 µM. Besides, in assay [2] (Homo sapiens, T-cell, 120 h), the Emax was found to be 112% and the EC50 is 1.19 µM.
The like results for `N[C@H]1CS(=O)(=O)c2cc(F)c(-c3noc(C(N)(C4CCOCC4)C(F)(F)F)n3)cc2N(Cc2ccc(Cl)cc2)C1=O` (stereo partly drawn) [Example 294, (3R)-3-amino-7-[5-(1-amino-2,2,2-trifluoro-1-tetrahydropyran-4-yl-ethyl)-1,2,4-oxadiazol-3-yl]-5-[(4-chlorophenyl)methyl]-8-fluoro-1,1-dioxo-2,3-dihydro-1λ^6,5-benzothiazepin-4-one] were, in that order, 0.373 µM, 143% and 0.261 µM.
For `CC(C)(C#N)c1nnc(-c2cc3c(cc2F)S(=O)(=O)C[C@H](N)C(=O)N3Cc2ccc(Cl)cc2)o1` [Example 104, 2-methyl-2-[5-[(3R)-3-amino-5-[(4-chlorophenyl)methyl]-8-fluoro-1,1,4-trioxo-2,3-dihydro-1λ^6,5-benzothiazepin-7-yl]-1,3,4-oxadiazol-2-yl]propanenitrile] the same measures were 0.277 µM, 112% and 0.15 µM.
The like results for `CN(C)CC(C)(C)c1nnc(-c2cc3c(cc2F)S(=O)(=O)C[C@H](N)C(=O)N3Cc2ccc(Cl)cc2)o1` [Example 146, (3R)-3-amino-5-[(4-chlorophenyl)methyl]-7-[5-[2-(dimethylamino)-1,1-dimethyl-ethyl]-1,3,4-oxadiazol-2-yl]-8-fluoro-1,1-dioxo-2,3-dihydro-1λ^6,5-benzothiazepin-4-one] were, in that order, 0.26 µM, 90% and 0.189 µM.
In assay [1], `CC[C@H](NC)C(=O)N[C@H]1CS(=O)(=O)c2cc(F)c(-c3nnc(C(C)(C)C)o3)cc2N(Cc2ccc(Cl)cc2)C1=O` [Example 263, (2S)-N-[(3R)-7-(5-tert-butyl-1,3,4-oxadiazol-2-yl)-5-[(4-chlorophenyl)methyl]-8-fluoro-1,1,4-trioxo-2,3-dihydro-1λ^6,5-benzothiazepin-3-yl]-2-(methylamino)butanamide] yielded an EC50 of 1.4 µM. Moreover, in assay [2], the “Emax proliferation (% activation)” value is on record as 185 % activation and the EC50 is below 0.162 µM.
Turning to `CC(C)(C)c1nnc(-c2ccc3c(c2)N(Cc2ccc(OC4CC4)cc2)C(=O)[C@@H](N)CS3(=O)=O)o1` [Example 435], the EC50 in assay [1] was found to be 3.28 µM; in assay [2] (Homo sapiens, T-cell, 120 h), 0.671 µM. Also, the Emax in assay [2] (Homo sapiens, T-cell, 120 h) stood at 117%.
